US20020137929A1, “1 - (3-heterocyclylphenyl) isothiourea, -isourea, -guanidine and -amidine herbicidal agents” (Intellectual Property Department, BASF Aktiengesellschaft, priority 1998, published 2002)

Key:
AMBEL (Ragweed, Common) [1] = assay: Postemergence herbicidal evaluation; format: in vivo, Ambrosia artemisifolia; settings: postemergence
Outline: (§1)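 ~2-wk seedlings; postemergence spray, 40 psi; vehicle 1:1 acetone:water + 0.5% Tween 20; rate ≈0.0156–0.500 kg/ha; greenhouse hold; scored 4–5 wk after treatment, 0–9 scale vs control; repeat tests averaged.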

CASOB (Sicklepod) [2] = assay: Postemergence herbicidal evaluation; format: in vivo, Cassia obtusifolia; settings: postemergence
Outline: as §1

[3] = test system: CHEAL (Lambsquarters, Common); assay: Postemergence herbicidal evaluation; format: in vivo, Chenopodium album; settings: postemergence
Outline: as §1

ECHCG (Barnyardgrass) = assay: Postemergence herbicidal evaluation; format: in vivo, Echinochloa crus-galli; settings: postemergence
Outline: as §1

[4] = test system: GLXMAW (Soybean, Williams); assay: Postemergence herbicidal evaluation; format: in vivo, Glycine max, (L.) Merr. cv Williams; settings: postemergence
Outline: as §1

[5] = test system: TRZAWR (Wheat, Winter, cv Riband); assay: Postemergence herbicidal evaluation; format: in vivo, Triticum aestivum; settings: postemergence
Outline: as §1

ABUTH (Velvetleaf) = assay: Preemergence herbicidal evaluation; format: in vivo, Abutilon theophrasti; settings: rated 4-5 weeks after treatment
Outline: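 Sown cups got a single aqueous acetone spray of test compound (roughly 0.0156–0.500 kg/ha) before seedlings emerged. Evaluation, 4–5 weeks on, used a 0–9 visual scale covering plant stand, vigor, size, malformation, chlorosis and general appearance compared with controls.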

AMBEL (Ragweed, Common) [6] = assay: Preemergence herbicidal evaluation; format: in vivo, Ambrosia artemisifolia; settings: rated 4-5 weeks after treatment
Description: (§2) Results of herbicide evaluation are expressed on a rating scale (0-9). The scale is based upon a visual observation of plant stand, vigor, malformation, size, chlorosis and overall plant appearance as compared with a control.
(§3) The preemergence herbicidal activity of the test compounds of the present invention is exemplified by the following tests in which the seeds of a variety of monocotyledonous and dicotyledonous plants are separately mixed with potting soil and planted on top of approximately one inch of soil in separate pint cups. After planting, the cups are sprayed with the selected aqueous acetone solution containing test compound in sufficient quantity to provide the equivalent of about 0.0156 to 0.500 kg per hectare of test compound per cup. The treated cups are then placed on greenhouse benches, watered and cared for in accordance with conventional greenhouse procedures. From four to five weeks after treatment, the tests are terminated and each cup is examined and rated according to the rating system provided in Example 37.
(§4) The compounds evaluated are reported by compound number given in Example 37.

CASOB (Sicklepod) [7] = assay: Preemergence herbicidal evaluation; format: in vivo, Cassia obtusifolia; settings: rated 4-5 weeks after treatment
Description: as §2, §3, §4

[8] = test system: CHEAL (Lambsquarters, Common); assay: Preemergence herbicidal evaluation; format: in vivo, Chenopodium album; settings: rated 4-5 weeks after treatment
Description: as §2, §3, §4

[9] = test system: IPOHE (Morningglory, Ivyleaf); assay: Preemergence herbicidal evaluation; format: in vivo, Ipomoea hederacea; settings: rated 4-5 weeks after treatment
Description: as §2, §3, §4

[10] = test system: GLXMAW (Soybean, Williams); assay: Preemergence herbicidal evaluation; format: in vivo, Glycine max, (L.) Merr. cv Williams; settings: rated 4-5 weeks after treatment
Description: as §2, §3, §4

ORYSAT (Rice, Tebonnet) = assay: Preemergence herbicidal evaluation; format: in vivo, Oryza sativa, (L.) Tebonnet; settings: rated 4-5 weeks after treatment
Description: as §2, §3, §4

MOOVA (Monochoria) = assay: Preemergence weed control under flooded paddy conditions; format: in vivo, Monochoria vaginalis; settings: rated 3-4 weeks after treatment
Outline: (§5)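 Silt loam, seeds in top 0.5 cm; flood held 1.5-3 cm; test cpd as acetone/water 50/50 into flood water, ~0.0313-0.500 kg/ha a.i.; greenhouse 3-4 wk; visual 0-9 score vs control.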

[11] = test system: SAGPY (Arrowhead (Pygmaea)); assay: as above; format: in vivo, Sagittaria pygmaea; settings: rated 3-4 weeks after treatment
Outline: as §5

CN1C(=O)CS/C1=N/c1cc(-n2c(=O)cc(C(F)(F)F)n(C)c2=O)c(F)cc1Cl [Compound 7]
AMBEL herbicidal rating (AMBEL (Ragweed, Common) [1]; rate 0.0157 kg/ha): 5.0
AMBEL herbicidal rating (AMBEL (Ragweed, Common) [1]; rate 0.0313 kg/ha): 5.0
AMBEL herbicidal rating (AMBEL (Ragweed, Common) [1]; rate 0.0625 kg/ha): 7.0
AMBEL herbicidal rating (AMBEL (Ragweed, Common) [1]; rate 0.1250 kg/ha): 9.0
CASOB herbicidal rating (CASOB (Sicklepod) [2]; rate 0.0157 kg/ha): 4.0
CASOB herbicidal rating (CASOB (Sicklepod) [2]; rate 0.0313 kg/ha): 5.0
CASOB herbicidal rating (CASOB (Sicklepod) [2]; rate 0.0625 kg/ha): 5.0
CASOB herbicidal rating (CASOB (Sicklepod) [2]; rate 0.1250 kg/ha): 7.0
CHEAL herbicidal rating ([3]; rate 0.0157 kg/ha): 0.0
CHEAL herbicidal rating ([3]; rate 0.0313 kg/ha): 5.0
CHEAL herbicidal rating ([3]; rate 0.0625 kg/ha): 6.0
CHEAL herbicidal rating ([3]; rate 0.1250 kg/ha): 9.0
ECHCG herbicidal rating (ECHCG (Barnyardgrass); rate 0.0157 kg/ha): 2.0
ECHCG herbicidal rating (ECHCG (Barnyardgrass); rate 0.0313 kg/ha): 0.0
ECHCG herbicidal rating (ECHCG (Barnyardgrass); rate 0.0625 kg/ha): 3.0
ECHCG herbicidal rating (ECHCG (Barnyardgrass); rate 0.1250 kg/ha): 4.0
GLXMAW herbicidal rating ([4]; rate 0.0157 kg/ha): 5.0
GLXMAW herbicidal rating ([4]; rate 0.0313 kg/ha): 6.5
GLXMAW herbicidal rating ([4]; rate 0.0625 kg/ha): 7.5
GLXMAW herbicidal rating ([4]; rate 0.1250 kg/ha): 7.5
TRZAWR herbicidal rating ([5]; rate 0.0157 kg/ha): 4.5
TRZAWR herbicidal rating ([5]; rate 0.0313 kg/ha): 3.0
TRZAWR herbicidal rating ([5]; rate 0.0625 kg/ha): 5.0
TRZAWR herbicidal rating ([5]; rate 0.1250 kg/ha): 6.0
ABUTH preemergence herbicidal rating (ABUTH (Velvetleaf); rate 0.0157 kg/ha): 9.0
ABUTH preemergence herbicidal rating (ABUTH (Velvetleaf); rate 0.0313 kg/ha): 9.0
ABUTH preemergence herbicidal rating (ABUTH (Velvetleaf); rate 0.0625 kg/ha): 9.0
ABUTH preemergence herbicidal rating (ABUTH (Velvetleaf); rate 0.1250 kg/ha): 9.0
ABUTH preemergence herbicidal rating (ABUTH (Velvetleaf); rate 0.2500 kg/ha): 9.0
AMBEL preemergence herbicidal rating (AMBEL (Ragweed, Common) [6]; rate 0.0157 kg/ha): 5.0
AMBEL preemergence herbicidal rating (AMBEL (Ragweed, Common) [6]; rate 0.0313 kg/ha): 8.5
AMBEL preemergence herbicidal rating (AMBEL (Ragweed, Common) [6]; rate 0.0625 kg/ha): 9.0
AMBEL preemergence herbicidal rating (AMBEL (Ragweed, Common) [6]; rate 0.1250 kg/ha): 9.0
AMBEL preemergence herbicidal rating (AMBEL (Ragweed, Common) [6]; rate 0.2500 kg/ha): 9.0
CASOB preemergence herbicidal rating (CASOB (Sicklepod) [7]; rate 0.0157 kg/ha): 9.0
CASOB preemergence herbicidal rating (CASOB (Sicklepod) [7]; rate 0.0313 kg/ha): 9.0
CASOB preemergence herbicidal rating (CASOB (Sicklepod) [7]; rate 0.0625 kg/ha): 9.0
CASOB preemergence herbicidal rating (CASOB (Sicklepod) [7]; rate 0.1250 kg/ha): 8.0
CASOB preemergence herbicidal rating (CASOB (Sicklepod) [7]; rate 0.2500 kg/ha): 9.0
CHEAL preemergence herbicidal rating ([8]; rate 0.0157 kg/ha): 9.0
CHEAL preemergence herbicidal rating ([8]; rate 0.0313 kg/ha): 9.0
CHEAL preemergence herbicidal rating ([8]; rate 0.0625 kg/ha): 9.0
CHEAL preemergence herbicidal rating ([8]; rate 0.1250 kg/ha): 9.0
CHEAL preemergence herbicidal rating ([8]; rate 0.2500 kg/ha): 9.0
IPOHE preemergence herbicidal rating ([9]; rate 0.0313 kg/ha): 4.0
IPOHE preemergence herbicidal rating ([9]; rate 0.0625 kg/ha): 4.0
IPOHE preemergence herbicidal rating ([9]; rate 0.1250 kg/ha): 9.0
IPOHE preemergence herbicidal rating ([9]; rate 0.2500 kg/ha): 9.0
GLXMAW preemergence herbicidal rating ([10]; rate 0.0157 kg/ha): 5.0
GLXMAW preemergence herbicidal rating ([10]; rate 0.0313 kg/ha): 6.5
GLXMAW preemergence herbicidal rating ([10]; rate 0.0625 kg/ha): 7.5
GLXMAW preemergence herbicidal rating ([10]; rate 0.1250 kg/ha): 8.0
GLXMAW preemergence herbicidal rating ([10]; rate 0.2500 kg/ha): 8.5
ORYSAT preemergence herbicidal rating (ORYSAT (Rice, Tebonnet); rate 0.0157 kg/ha): 5.0
ORYSAT preemergence herbicidal rating (ORYSAT (Rice, Tebonnet); rate 0.0313 kg/ha): 7.5
ORYSAT preemergence herbicidal rating (ORYSAT (Rice, Tebonnet); rate 0.0625 kg/ha): 8.0
ORYSAT preemergence herbicidal rating (ORYSAT (Rice, Tebonnet); rate 0.1250 kg/ha): 8.5
ORYSAT preemergence herbicidal rating (ORYSAT (Rice, Tebonnet); rate 0.2500 kg/ha): 9.0
Herbicidal rating MOOVA (MOOVA (Monochoria); 0.0313 kg/ha): 9.0
Herbicidal rating MOOVA (MOOVA (Monochoria); 0.0625 kg/ha): 9.0
Herbicidal rating MOOVA (MOOVA (Monochoria); 0.1250 kg/ha): 9.0
Herbicidal rating MOOVA (MOOVA (Monochoria); 0.2500 kg/ha): 9.0
Herbicidal rating SAGPY ([11]; 0.0313 kg/ha): 2.0
Herbicidal rating SAGPY ([11]; 0.0625 kg/ha): 4.0
Herbicidal rating SAGPY ([11]; 0.1250 kg/ha): 8.0
Herbicidal rating SAGPY ([11]; 0.2500 kg/ha): 9.0
